Measurements from PubChem BioAssay (NCI).
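Grown in 96-well plates, cells were treated for 48 hours with each compound at five concentrations. Insufficient inhibition: endpoint recorded as highest concentration tested. At the GI50, growth is halved. Definition used: TGI = concentration required for complete inhibition of growth.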

Legend:
Assay in all cases: DTP human tumour cell line panel, 48 h; in the data active = GI50 below about 0.43 µM; inactive = the rest
MOLT-4 leukemia = test system: MOLT-4 leukemia
EKVX NSCLC = test system: EKVX NSCLC
HT29 colon = test system: HT29 colon
CAKI-1 renal = test system: CAKI-1 renal
SR leukemia = test system: SR leukemia
HCT-15 colon = test system: HCT-15 colon
TK-10 renal = test system: TK-10 renal
K-562 leukemia = test system: K-562 leukemia
SK-OV-3 ovarian = test system: SK-OV-3 ovarian
HOP-62 NSCLC = test system: HOP-62 NSCLC
SF-295 CNS = test system: SF-295 CNS
SK-MEL-28 melanoma = test system: SK-MEL-28 melanoma
HOP-92 NSCLC = test system: HOP-92 NSCLC
U251 CNS = test system: U251 CNS
OVCAR-4 ovarian = test system: OVCAR-4 ovarian
T-47D breast = test system: T-47D breast
A549 NSCLC = test system: A549 NSCLC
MCF7 breast = test system: MCF7 breast
RXF 393 renal = test system: RXF 393 renal
PC-3 prostate = test system: PC-3 prostate
KM12 colon = test system: KM12 colon
UO-31 renal = test system: UO-31 renal
CCRF-CEM leukemia = test system: CCRF-CEM leukemia
M14 melanoma = test system: M14 melanoma
MDA-MB-435 = test system: MDA-MB-435
HCT-116 colon = test system: HCT-116 colon
BT-549 breast = test system: BT-549 breast
LOX IMVI melanoma = test system: LOX IMVI melanoma
ACHN renal = test system: ACHN renal
HS 578T breast = test system: HS 578T breast
SF-268 CNS = test system: SF-268 CNS
NCI-H226 lung = test system: NCI-H226 lung
SW-620 colon = test system: SW-620 colon
NCI-H460 lung = test system: NCI-H460 lung
NCI-H522 lung = test system: NCI-H522 lung
IGROV1 ovarian = test system: IGROV1 ovarian
OVCAR-8 ovarian = test system: OVCAR-8 ovarian
UACC-62 melanoma = test system: UACC-62 melanoma
DU-145 prostate = test system: DU-145 prostate
SK-MEL-2 melanoma = test system: SK-MEL-2 melanoma
HL-60(TB) leukemia = test system: HL-60(TB) leukemia
SF-539 CNS = test system: SF-539 CNS
COLO 205 colon = test system: COLO 205 colon
SNB-75 CNS = test system: SNB-75 CNS
SNB-19 CNS = test system: SNB-19 CNS
MDA-MB-231 breast = test system: MDA-MB-231 breast
786-0 renal = test system: 786-0 renal
UACC-257 melanoma = test system: UACC-257 melanoma
OVCAR-3 ovarian = test system: OVCAR-3 ovarian
RPMI-8226 leukemia = test system: RPMI-8226 leukemia
SN12C renal = test system: SN12C renal
SK-MEL-5 melanoma = test system: SK-MEL-5 melanoma
NCI/ADR-RES ovarian = test system: NCI/ADR-RES ovarian
NCI-H23 lung = test system: NCI-H23 lung
OVCAR-5 ovarian = test system: OVCAR-5 ovarian
HCC-2998 colon = test system: HCC-2998 colon
A498 renal = test system: A498 renal
MALME-3M melanoma = test system: MALME-3M melanoma

COc1ccc(NC(=O)CSC2=C(Nc3cccc(Br)c3)C(=O)N(Cc3ccccc3)C2=O)cc1Cl
82.2 µM: TGI (NCI-H522 lung)
inactive: GI50 (MOLT-4 leukemia) 1.73 µM | GI50 (EKVX NSCLC) 84.8 µM | GI50 (HT29 colon) > 100 µM | GI50 (CAKI-1 renal) > 100 µM | GI50 (SR leukemia) 3.02 µM | GI50 (HCT-15 colon) > 100 µM | GI50 (TK-10 renal) 44.4 µM | GI50 (K-562 leukemia) 4.41 µM | GI50 (SK-OV-3 ovarian) > 100 µM | GI50 (HOP-62 NSCLC) > 100 µM | GI50 (SF-295 CNS) > 100 µM | GI50 (SK-MEL-28 melanoma) > 100 µM | GI50 (HOP-92 NSCLC) 24.5 µM | GI50 (U251 CNS) 35.5 µM | GI50 (OVCAR-4 ovarian) > 100 µM | GI50 (T-47D breast) > 100 µM | GI50 (A549 NSCLC) 62.4 µM | GI50 (MCF7 breast) 15.9 µM | GI50 (RXF 393 renal) > 100 µM | GI50 (PC-3 prostate) 8.82 µM | GI50 (KM12 colon) 65.5 µM | GI50 (UO-31 renal) 12.5 µM | GI50 (CCRF-CEM leukemia) 1.72 µM | GI50 (M14 melanoma) > 100 µM | GI50 (MDA-MB-435) > 100 µM | GI50 (HCT-116 colon) 32.8 µM | GI50 (BT-549 breast) 51.6 µM | GI50 (LOX IMVI melanoma) 40.4 µM | GI50 (ACHN renal) > 100 µM | GI50 (HS 578T breast) 35.4 µM | GI50 (SF-268 CNS) 21.5 µM | GI50 (NCI-H226 lung) > 100 µM | GI50 (SW-620 colon) > 100 µM | GI50 (NCI-H460 lung) 29.9 µM | GI50 (NCI-H522 lung) 6.85 µM | GI50 (IGROV1 ovarian) 30.7 µM | GI50 (OVCAR-8 ovarian) > 100 µM | GI50 (UACC-62 melanoma) 46.2 µM | GI50 (DU-145 prostate) > 100 µM | GI50 (SK-MEL-2 melanoma) > 100 µM | GI50 (HL-60(TB) leukemia) 3.41 µM | GI50 (SF-539 CNS) > 100 µM | GI50 (COLO 205 colon) > 100 µM | GI50 (SNB-75 CNS) > 100 µM | GI50 (SNB-19 CNS) > 100 µM | GI50 (MDA-MB-231 breast) > 100 µM | GI50 (786-0 renal) > 100 µM | GI50 (UACC-257 melanoma) > 100 µM | GI50 (OVCAR-3 ovarian) > 100 µM | GI50 (RPMI-8226 leukemia) 4.14 µM | GI50 (SN12C renal) > 100 µM | GI50 (SK-MEL-5 melanoma) 16.8 µM
24.3 µM: TGI (SR leukemia)
> 100 µM: TGI (MOLT-4 leukemia) | TGI (EKVX NSCLC) | TGI (HT29 colon) | TGI (CAKI-1 renal) | TGI (HCT-15 colon) | TGI (TK-10 renal) | TGI (K-562 leukemia) | TGI (SK-OV-3 ovarian) | TGI (HOP-62 NSCLC) | TGI (SF-295 CNS) | TGI (SK-MEL-28 melanoma) | TGI (HOP-92 NSCLC) | TGI (U251 CNS) | TGI (OVCAR-4 ovarian) | TGI (T-47D breast) | TGI (A549 NSCLC) | TGI (MCF7 breast) | TGI (RXF 393 renal) | TGI (PC-3 prostate) | TGI (KM12 colon) | TGI (UO-31 renal) | TGI (M14 melanoma) | TGI (MDA-MB-435) | TGI (HCT-116 colon) | TGI (BT-549 breast) | TGI (LOX IMVI melanoma) | TGI (ACHN renal) | TGI (HS 578T breast) | TGI (SF-268 CNS) | TGI (NCI-H226 lung) | TGI (SW-620 colon) | TGI (NCI-H460 lung) | TGI (IGROV1 ovarian) | TGI (OVCAR-8 ovarian) | TGI (UACC-62 melanoma) | TGI (DU-145 prostate) | TGI (SK-MEL-2 melanoma) | TGI (HL-60(TB) leukemia) | TGI (SF-539 CNS) | TGI (COLO 205 colon) | TGI (SNB-75 CNS) | TGI (SNB-19 CNS) | TGI (MDA-MB-231 breast) | TGI (786-0 renal) | TGI (UACC-257 melanoma) | TGI (OVCAR-3 ovarian) | TGI (RPMI-8226 leukemia) | TGI (SN12C renal) | TGI (SK-MEL-5 melanoma)
29.6 µM: TGI (CCRF-CEM leukemia)

Cc1nc(N)nc2c1CCC(O)S2 (centres undefined)
12.3 µM: TGI (HOP-92 NSCLC)
12.2 µM: TGI (DU-145 prostate)
33 µM: TGI (HL-60(TB) leukemia)
14.2 µM: TGI (OVCAR-4 ovarian)
74.3 µM: TGI (OVCAR-5 ovarian)
39.8 µM: TGI (SNB-75 CNS)
14.1 µM: TGI (SW-620 colon)
93.2 µM: TGI (EKVX NSCLC)
6.04 µM: TGI (HCT-116 colon)
11.5 µM: TGI (U251 CNS)
22.2 µM: TGI (HCC-2998 colon)
44.3 µM: TGI (SF-295 CNS)
28.9 µM: TGI (SK-MEL-28 melanoma)
17.9 µM: TGI (IGROV1 ovarian)
69.1 µM: TGI (CCRF-CEM leukemia)
31.6 µM: TGI (M14 melanoma)
27.9 µM: TGI (SF-539 CNS)
78.2 µM: TGI (A549 NSCLC)
30.2 µM: TGI (T-47D breast)
inactive: GI50 (MOLT-4 leukemia) 2.91 µM | GI50 (EKVX NSCLC) 24.8 µM | GI50 (HT29 colon) 4.24 µM | GI50 (NCI/ADR-RES ovarian) > 100 µM | GI50 (CAKI-1 renal) 33.7 µM | GI50 (SR leukemia) 4.21 µM | GI50 (HCT-15 colon) 26.3 µM | GI50 (TK-10 renal) 32.1 µM | GI50 (NCI-H23 lung) 3.66 µM | GI50 (K-562 leukemia) 5.18 µM | GI50 (OVCAR-5 ovarian) 20.7 µM | GI50 (SK-OV-3 ovarian) 11.3 µM | GI50 (HOP-62 NSCLC) 5.44 µM | GI50 (SF-295 CNS) 14.8 µM | GI50 (SK-MEL-28 melanoma) 6.11 µM | GI50 (HOP-92 NSCLC) 2.54 µM | GI50 (U251 CNS) 3.3 µM | GI50 (OVCAR-4 ovarian) 3.26 µM | GI50 (HCC-2998 colon) 9.46 µM | GI50 (A498 renal) 17.7 µM | GI50 (T-47D breast) 5.25 µM | GI50 (A549 NSCLC) 19.3 µM | GI50 (MALME-3M melanoma) 11.3 µM | GI50 (MCF7 breast) 3.02 µM | GI50 (RXF 393 renal) 5.4 µM | GI50 (PC-3 prostate) 3.52 µM | GI50 (KM12 colon) 5.46 µM | GI50 (UO-31 renal) 39.7 µM | GI50 (CCRF-CEM leukemia) 4.29 µM | GI50 (M14 melanoma) 8.44 µM | GI50 (MDA-MB-435) 4.51 µM | GI50 (HCT-116 colon) 2.39 µM | GI50 (LOX IMVI melanoma) 10.4 µM | GI50 (ACHN renal) 22 µM | GI50 (HS 578T breast) 10.7 µM | GI50 (SF-268 CNS) 4.84 µM | GI50 (SW-620 colon) 3.64 µM | GI50 (NCI-H460 lung) 3.86 µM | GI50 (NCI-H522 lung) 17 µM | GI50 (IGROV1 ovarian) 4.67 µM | GI50 (OVCAR-8 ovarian) 3.73 µM | GI50 (UACC-62 melanoma) 11.3 µM | GI50 (DU-145 prostate) 3.5 µM | GI50 (HL-60(TB) leukemia) 11.4 µM | GI50 (SF-539 CNS) 12.3 µM | GI50 (COLO 205 colon) 5.31 µM | GI50 (SNB-75 CNS) 11.2 µM | GI50 (SNB-19 CNS) 6.43 µM | GI50 (MDA-MB-231 breast) 10.2 µM | GI50 (786-0 renal) 10.7 µM | GI50 (UACC-257 melanoma) 12.9 µM | GI50 (OVCAR-3 ovarian) 2.76 µM | GI50 (RPMI-8226 leukemia) 21.3 µM | GI50 (SN12C renal) 7.81 µM | GI50 (SK-MEL-5 melanoma) 12.5 µM
17.3 µM: TGI (HT29 colon)
27 µM: TGI (RXF 393 renal)
19.6 µM: TGI (KM12 colon)
41.1 µM: TGI (SNB-19 CNS)
17.2 µM: TGI (NCI-H23 lung)
> 100 µM: TGI (NCI/ADR-RES ovarian) | TGI (CAKI-1 renal) | TGI (SR leukemia) | TGI (HCT-15 colon) | TGI (TK-10 renal) | TGI (K-562 leukemia) | TGI (UO-31 renal) | TGI (ACHN renal) | TGI (HS 578T breast) | TGI (RPMI-8226 leukemia)
26.3 µM: TGI (SK-MEL-5 melanoma)
24 µM: TGI (OVCAR-8 ovarian)
39.4 µM: TGI (MALME-3M melanoma)
10.4 µM: TGI (MCF7 breast)
56.2 µM: TGI (SN12C renal)
25.8 µM: TGI (UACC-62 melanoma)
8.36 µM: TGI (MOLT-4 leukemia)
18.7 µM: TGI (MDA-MB-435)
24.5 µM: TGI (LOX IMVI melanoma) | TGI (786-0 renal)
44.7 µM: TGI (PC-3 prostate)
93.1 µM: TGI (A498 renal)
32.8 µM: TGI (MDA-MB-231 breast)
7.7 µM: TGI (OVCAR-3 ovarian)
15.3 µM: TGI (NCI-H460 lung)
16.7 µM: TGI (COLO 205 colon)
25.6 µM: TGI (SK-OV-3 ovarian) | TGI (SF-268 CNS)
34 µM: TGI (NCI-H522 lung)
18.5 µM: TGI (HOP-62 NSCLC)
47.1 µM: TGI (UACC-257 melanoma)
